Measured values published in patent US5202315A, “Cephalosporin compounds” (Lucky, Ltd., priority 1989, dated 1993).
Converted amounts (≈) assume the structure as drawn. Read-outs that look alike come from different tables or passages of the source.

Assays:
Klebsiella pneumoniae = assay: Antibacterial activity against clinically isolated strains, MIC; format: cell-based; details: 10 clinical isolates, broth microdilution test; for MIC90: read-out: MIC 90%
[1] = In-vivo absorbency (plasma concentrations & pharmacokinetic parameters); design: species or system SD rat (male); details: plasma, SD male rat, iv 20 mg/kg, read-out: Plasma Conc.
Pseudomonas aeruginosa = assay: Antibacterial activity against clinically isolated strains, MIC; format: cell-based; details: for MIC50: 54 clinical isolates, broth microdilution test
[2] = system: Staphylococcus aureus methicillin resistant; assay: as above; format: cell-based; details: methicillin resistant, 7 clinical isolates, broth microdilution test; for MIC90: read-out: MIC 90%
[3] = system: Staphylococcus aureus methicillin susceptible; assay: as above; format: cell-based; details: methicillin susceptible, 42 clinical isolates, broth microdilution test; for MIC90: read-out: MIC 90%
[4] = system: Staphylococcus aureus ATCC 10537; assay: Antibacterial activity, MIC; format: cell-based; details: ATCC10537, ATCC 10537, agar two-fold dilution, 37° C., 20 hours, read-out: MIC
Summary of the method: (§1)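 MIC by two-fold serial dilution in Mueller-Hinton agar; inoculum 2 μl at 10^7 CFU/ml; 37 °C, 20 h.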

[5] = system: Pseudomonas aeruginosa ATCC 25619; assay: Antibacterial activity, MIC; format: cell-based; details: ATCC25619, ATCC 25619, agar two-fold dilution, 37° C., 20 hours, read-out: MIC
Summary of the method: as §1

[6] = system: Staphylococcus aureus ATCC 6538p; assay: Antibacterial activity, MIC; format: cell-based; details: ATCC6538P, ATCC 6538p, agar two-fold dilution, 37° C., 20 hours, read-out: MIC
Summary of the method: as §1

[7] = system: Shigella sonnei ATCC 11060; assay: Antibacterial activity, MIC; format: cell-based; details: ATCC11060, ATCC 11060, agar two-fold dilution, 37° C., 20 hours, read-out: MIC
Summary of the method: as §1

[8] = system: Salmonella typhimurium ATCC 14028; assay: Antibacterial activity, MIC; format: cell-based; details: Salmonella enterica; ATCC 14028; agar two-fold dilution, 37° C., 20 hours; read-out: MIC
Summary of the method: as §1

[9] = system: Pseudomonas aeruginosa ATCC 10145; assay: Antibacterial activity, MIC; format: cell-based; details: ATCC10145, ATCC 10145, agar two-fold dilution, 37° C., 20 hours, read-out: MIC
Summary of the method: as §1

[10] = system: Morganella morganii ATCC 8076h; assay: Antibacterial activity, MIC; format: cell-based; details: ATCC8076H, agar two-fold dilution, 37° C., 20 hours
Summary of the method: as §1

[11] = system: Providencia rettgeri ATCC 9250; assay: Antibacterial activity, MIC; format: cell-based; details: ATCC9250, agar two-fold dilution, 37° C., 20 hours
Summary of the method: as §1

[12] = system: Pseudomonas aeruginosa ATCC 27853; assay: Antibacterial activity, MIC; format: cell-based; details: ATCC27853, ATCC 27853, agar two-fold dilution, 37° C., 20 hours, read-out: MIC
Summary of the method: as §1

[13] = system: Micrococcus luteus ATCC 9341; assay: Antibacterial activity, MIC; format: cell-based; details: ATCC9341, ATCC 9341, agar two-fold dilution, 37° C., 20 hours, read-out: MIC
Summary of the method: as §1

[14] = system: Bacillus megaterium ATCC 9885; assay: Antibacterial activity, MIC; format: cell-based; details: Priestia megaterium, ATCC9885; ATCC 9885; agar two-fold dilution, 37° C., 20 hours; read-out: MIC
Summary of the method: as §1

[15] = system: Proteus mirabilis ATCC 25933; assay: Antibacterial activity, MIC; format: cell-based; details: ATCC25933, ATCC 25933, agar two-fold dilution, 37° C., 20 hours, read-out: MIC
Summary of the method: as §1

[16] = system: Bacillus cereus ATCC 11778; assay: Antibacterial activity, MIC; format: cell-based; details: ATCC11778, ATCC 11778, agar two-fold dilution, 37° C., 20 hours, read-out: MIC
Summary of the method: as §1

[17] = system: Staphylococcus epidermidis ATCC 12228; assay: Antibacterial activity, MIC; format: cell-based; details: ATCC12228, ATCC 12228, agar two-fold dilution, 37° C., 20 hours, read-out: MIC
Summary of the method: as §1

[18] = system: Shigella flexneri ATCC 11836; assay: Antibacterial activity, MIC; format: cell-based; details: ATCC11836, agar two-fold dilution, 37° C., 20 hours
Summary of the method: as §1

[19] = system: Enterobacter aerogenes ATCC 29751; assay: Antibacterial activity, MIC; format: cell-based; details: Klebsiella aerogenes, ATCC29751; ATCC 29751; agar two-fold dilution, 37° C., 20 hours; read-out: MIC
Summary of the method: as §1

[20] = system: Klebsiella pneumoniae ATCC 10031; assay: Antibacterial activity, MIC; format: cell-based; details: ATCC10031, ATCC 10031, agar two-fold dilution, 37° C., 20 hours, read-out: MIC
Summary of the method: as §1

[21] = system: Acinetobacter calcoaceticus ATCC 15473; assay: Antibacterial activity, MIC; format: cell-based; details: ATCC15473, ATCC 15473, agar two-fold dilution, 37° C., 20 hours, read-out: MIC
Summary of the method: as §1

[22] = system: Serratia marcescens ATCC 27117; assay: Antibacterial activity, MIC; format: cell-based; details: ATCC27117, ATCC 27117, agar two-fold dilution, 37° C., 20 hours, read-out: MIC
Summary of the method: as §1

[23] = system: Escherichia coli ATCC 25922; assay: Antibacterial activity, MIC; format: cell-based; details: ATCC25922, agar two-fold dilution, 37° C., 20 hours
Summary of the method: as §1

[24] = system: Proteus vulgaris ATCC 6059; assay: Antibacterial activity, MIC; format: cell-based; details: ATCC6059, ATCC 6059, agar two-fold dilution, 37° C., 20 hours, read-out: MIC
Summary of the method: as §1

[25] = In-vivo absorbency (plasma concentrations & pharmacokinetic parameters); design: species or system SD rat (male); details: plasma, SD male rat, iv 20 mg/kg; for concentration at 1 h: 60 min; for concentration at 1 h / concentration at 2 h: read-out: Plasma Conc.; for concentration at 2 h: 120 min; for AUC / half-life: two compartment model; for half-life: rat, iv, 20 mg/kg
Description: The blood samples from the femoral vein of the rats were taken every hour after administration, and analyzed by bio-assay(agar well method).
Tested animal: SD male Rat (220~340 g)

C[n+]1c(N)cc(N)nc1SCC1=C(C(=O)[O-])N2C(=O)C(NC(=O)/C(=N\OCC(=O)O)c3csc(N)n3)C2SC1 (stereo not drawn) [Compound I-7]
MIC50 (Klebsiella pneumoniae): 0.016 mg/L (≈ 0.0269 µM) | MIC90 (Klebsiella pneumoniae): 0.031 mg/L (≈ 0.052 µM) | concentration at 1 min [1]: 128 µg/mL | concentration at 2.5 min [1]: 83 µg/mL | concentration at 5 min [1]: 59 µg/mL | concentration at 10 min [1]: 43 µg/mL | concentration at 20 min [1]: 29 µg/mL | concentration at 40 min [1]: 15 µg/mL | MIC90 (Pseudomonas aeruginosa): 16 mg/L (≈ 26.9 µM) | MIC50 (Pseudomonas aeruginosa): 4 mg/L (≈ 6.72 µM) | MIC [2]: > 32 mg/L | MIC50 [2]: > 32 mg/L | MIC90 [2]: > 32 mg/L | MIC50 [3]: 4 mg/L (≈ 6.72 µM) | MIC90 [3]: 4 mg/L (≈ 6.72 µM) | MIC [4]: 2 mg/L (≈ 3.36 µM) | MIC [5]: 2 mg/L (≈ 3.36 µM) | MIC [6]: 2 mg/L (≈ 3.36 µM) | MIC [7]: 0.016 mg/L (≈ 0.0269 µM) | MIC [8]: 0.063 mg/L (≈ 0.106 µM) | MIC [9]: 4 mg/L (≈ 6.72 µM) | MIC [10]: ≤ 0.008 mg/L | MIC [11]: ≤ 0.008 mg/L | MIC [12]: 2 mg/L (≈ 3.36 µM) | MIC [13]: 0.5 mg/L (≈ 0.839 µM) | MIC [14]: 0.5 mg/L (≈ 0.839 µM) | MIC [15]: 0.016 mg/L (≈ 0.0269 µM) | MIC [16]: 128 mg/L (≈ 215 µM) | MIC [17]: 1 mg/L (≈ 1.68 µM) | MIC [18]: ≤ 0.008 mg/L | MIC [19]: 0.5 mg/L (≈ 0.839 µM) | MIC [20]: 0.016 mg/L (≈ 0.0269 µM) | MIC [21]: 4 mg/L (≈ 6.72 µM) | MIC [22]: 0.016 mg/L (≈ 0.0269 µM) | MIC [23]: 0.016 mg/L (≈ 0.0269 µM) | MIC [24]: 0.016 mg/L (≈ 0.0269 µM) | concentration at 1 h [25]: 8.1 µg/mL | concentration at 2 h [25]: 1.9 µg/mL | AUC [25]: 35.7 µg·h/mL | half-life ([25]; read-out: T1/2 (α)): 2 min | half-life ([25]; read-out: T1/2 (β)): 26 min

CCO/N=C(\C(=O)NC1C(=O)N2C(C(=O)[O-])=C(CSc3nc(N)cc(N)[n+]3N)CSC12)c1csc(N)n1 (stereo not drawn) [Compound I-16]
MIC50 (Klebsiella pneumoniae): 0.13 mg/L (≈ 0.229 µM) | MIC90 (Klebsiella pneumoniae): 0.13 mg/L (≈ 0.229 µM) | concentration at 1 min [1]: 149 µg/mL | concentration at 2.5 min [1]: 106 µg/mL | concentration at 5 min [1]: 79 µg/mL | concentration at 10 min [1]: 52 µg/mL | concentration at 20 min [1]: 32 µg/mL | concentration at 40 min [1]: 13 µg/mL | MIC90 (Pseudomonas aeruginosa): 16 mg/L (≈ 28.2 µM) | MIC50 (Pseudomonas aeruginosa): 4 mg/L (≈ 7.06 µM) | MIC50 [2]: > 32 mg/L | MIC90 [2]: > 32 mg/L | MIC50 [3]: 0.25 mg/L (≈ 0.441 µM) | MIC90 [3]: 0.25 mg/L (≈ 0.441 µM) | MIC [4]: 0.25 mg/L (≈ 0.441 µM) | MIC [5]: 0.5 mg/L (≈ 0.882 µM) | MIC [6]: 0.25 mg/L (≈ 0.441 µM) | MIC [7]: 0.063 mg/L (≈ 0.111 µM) | MIC [8]: 0.25 mg/L (≈ 0.441 µM) | MIC [9]: 4 mg/L (≈ 7.06 µM) | MIC [10]: ≤ 0.008 mg/L | MIC [11]: ≤ 0.008 mg/L | MIC [12]: 2 mg/L (≈ 3.53 µM) | MIC [13]: 0.016 mg/L (≈ 0.0282 µM) | MIC [14]: 0.063 mg/L (≈ 0.111 µM) | MIC [15]: 0.13 mg/L (≈ 0.229 µM) | MIC [16]: 4 mg/L (≈ 7.06 µM) | MIC [17]: 0.063 mg/L (≈ 0.111 µM) | MIC [18]: 0.016 mg/L (≈ 0.0282 µM) | MIC [19]: 0.25 mg/L (≈ 0.441 µM) | MIC [20]: ≤ 0.008 mg/L | MIC [21]: 4 mg/L (≈ 7.06 µM) | MIC [22]: 0.13 mg/L (≈ 0.229 µM) | MIC [23]: 0.063 mg/L (≈ 0.111 µM) | MIC [24]: 0.13 mg/L (≈ 0.229 µM) | concentration at 1 h [25]: 8.8 µg/mL | concentration at 2 h [25]: 1.9 µg/mL | AUC [25]: 38.4 µg·h/mL | half-life ([25]; read-out: T1/2 (α)): 4 min | half-life ([25]; read-out: T1/2 (β)): 24 min
